# Molecular target: unphosphorylated-BTK kinase domain (UP-BTK), GST-tagged human BTK (389-659aa) (Homo sapiens (Human), UniProt Q06187)
# Assay: BTK Kinase Lanthascreen Binding Assay
# Conditions: compound, 50 nM Tracer 236, 2 nM anti-GST antibody, 60 minutes; pIC50 = negative log of the IC50 in molar
# Protocol: BTK Kinase Lanthascreen Binding Assay:
# A BTK kinase lanthascreen binding assay monitors compound binding to unphosphorylated-BTK kinase domain (UP-BTK), by competing with a fluorescent labeled tracer. […] Data were analyzed using Xlfit™ version 5.3 from ID Business Solutions (Guildford), Microsoft Excel add-in. pIC50 refers to the negative log of the IC50 in molar.
# Chain of unphosphorylated-BTK kinase domain (UP-BTK), GST-tagged human BTK (389-659aa) (Q06187 389-659): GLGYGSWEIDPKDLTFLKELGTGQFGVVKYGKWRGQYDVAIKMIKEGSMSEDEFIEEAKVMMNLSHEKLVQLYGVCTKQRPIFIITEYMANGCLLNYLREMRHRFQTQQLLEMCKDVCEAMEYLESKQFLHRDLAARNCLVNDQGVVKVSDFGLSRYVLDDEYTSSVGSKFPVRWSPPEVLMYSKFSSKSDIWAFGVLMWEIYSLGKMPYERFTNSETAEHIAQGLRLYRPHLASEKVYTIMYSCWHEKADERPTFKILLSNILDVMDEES
row,SMILES,BTK_I_binding pIC50
1,"C=CC(=O)N[C@@H]1CC[C@H](NC(=O)c2sc3nccc4c3c2NC(=O)N4c2ccc(OC(C)C)cc2C)C1 [Example 110, N-((1S,3R)-3-Acrylamidocyclopentyl)-5-(4-isopropoxy-2-methylphenyl)-4-oxo-4,5-dihydro-3H-1-thia-3,5,8-triazaacenaphthylene-2-carboxamide]",7.23
2,"C=CC(=O)N[C@H]1CCCC[C@H]1NC(=O)c1sc2nccc3c2c1NC(=O)N3c1ccc(Oc2ccccc2)cc1 [Example 118, N-((1R,2S)-2-Acrylamidocyclohexyl)-4-oxo-5-(4-phenoxyphenyl)-4,5-dihydro-3H-1-thia-3,5,8-triazaacenaphthylene-2-carboxamide]",8.12
3,"C=CC(=O)N[C@H]1CC[C@@H](NC(=O)c2sc3nccc4c3c2NC(=O)N4c2ccc(Oc3ccccc3)cc2)CC1 [Example 119, N-((1S,4S)-4-Acrylamidocyclohexyl)-4-oxo-5-(4-phenoxyphenyl)-4,5-dihydro-3H-1-thia-3,5,8-triazaacenaphthylene-2-carboxamide]",7.61
4,"C=CC(=O)N[C@H]1CC[C@@H](NC(=O)c2sc3nccc4c3c2NC(=O)N4c2ccc(Oc3ccccc3)cc2)C1 [Example 121, N-((1R,3S)-3-Acrylamidocyclopentyl)-4-oxo-5-(4-phenoxyphenyl)-4,5-dihydro-3H-1-thia-3,5,8-triazaacenaphthylene-2-carboxamide]",6.57
5,"C=CC(=O)N[C@@H]1CCCC[C@@H]1NC(=O)c1sc2nccc3c2c1NC(=O)N3c1ccc(Oc2ccccc2)cc1 [Example 124, N-((1S,2R)-2-Acrylamidocyclohexyl)-4-oxo-5-(4-phenoxyphenyl)-4,5-dihydro-3H-1-thia-3,5,8-triazaacenaphthylene-2-carboxamide]",6.71
6,"N[C@H]1CCCC[C@H]1NC(=O)c1sc2nccc3c2c1NC(=O)N3c1ccc(Oc2ccccc2)cc1 [Example 126, N-((1R,2S)-2-Aminocyclohexyl)-4-oxo-5-(4-phenoxyphenyl)-4,5-dihydro-3H-1-thia-3,5,8-triazaacenaphthylene-2-carboxamide]",7.13
7,"C=CC(=O)N[C@@H]1CCC[C@@H]1NC(=O)c1sc2nccc3c2c1NC(=O)N3c1ccc(Oc2ccccc2)cc1 [Example 127, N-((1S,2R)-2-Acrylamidocyclopentyl)-4-oxo-5-(4-phenoxyphenyl)-4,5-dihydro-3H-1-thia-3,5,8-triazaacenaphthylene-2-carboxamide]",6.56
8,"N[C@H]1CCCC[C@H]1NC(=O)c1sc2nccc3c2c1NC(=O)N3c1ccc(Oc2ccccc2)c(Cl)c1 [Example 137, N-((1R,2S)-2-Aminocyclohexyl)-5-(3-chloro-4-phenoxyphenyl)-4-oxo-4,5-dihydro-3H-1-thia-3,5,8-triazaacenaphthylene-2-carboxamide]",7.49
9,"O=C(N[C@@H]1CCC[C@@H](O)C1)c1sc2nccc3c2c1NC(=O)N3c1ccc(Oc2ccccc2)cc1 [Example 139, N-((1R,3R)-3-Hydroxycyclohexyl)-4-oxo-5-(4-phenoxyphenyl)-4,5-dihydro-3H-1-thia-3,5,8-triazaacenaphthylene-2-carboxamide]",7.23
10,"O=C(N[C@@H]1CCC[C@@H]1O)c1sc2nccc3c2c1NC(=O)N3c1ccc(Oc2ccccc2)cc1 [Example 140, N-((1R,2S)-2-Hydroxycyclopentyl)-4-oxo-5-(4-phenoxyphenyl)-4,5-dihydro-3H-1-thia-3,5,8-triazaacenaphthylene-2-carboxamide]",7.15
11,"N[C@H]1CCCC[C@H]1NC(=O)c1sc2nccc3c2c1NC(=O)N3c1cccc(-c2ccccc2)c1 [Example 141, 5-([1,1′-Biphenyl]-3-yl)-N-((1R,2S)-2-aminocyclohexyl)-4-oxo-4,5-dihydro-3H-1-thia-3,5,8-triazaacenaphthylene-2-carboxamide]",7.01
12,"O=C(N[C@@H]1CCC[C@H](O)C1)c1sc2nccc3c2c1NC(=O)N3c1ccc(Oc2ccccc2)cc1 [Example 142, N-((1R,3S)-3-Hydroxycyclohexyl)-4-oxo-5-(4-phenoxyphenyl)-4,5-dihydro-3H-1-thia-3,5,8-triazaacenaphthylene-2-carboxamide]",6.87
13,"O=C(N[C@H]1CCC[C@H](O)C1)c1sc2nccc3c2c1NC(=O)N3c1ccc(Oc2ccccc2)cc1 [Example 143, N-((1S,3S)-3-Hydroxycyclohexyl)-4-oxo-5-(4-phenoxyphenyl)-4,5-dihydro-3H-1-thia-3,5,8-triazaacenaphthylene-2-carboxamide]",6.75
14,"O=C(N[C@@H]1CCC[C@H]1O)c1sc2nccc3c2c1NC(=O)N3c1cccc(-c2ccccc2)c1 [Example 144, 5-([1,1′-Biphenyl]-3-yl)-N-((1R,2R)-2-hydroxycyclopentyl)-4-oxo-4,5-dihydro-3H-1-thia-3,5,8-triazaacenaphthylene-2-carboxamide]",6.69
15,"N[C@H]1CC[C@@H](NC(=O)c2sc3nccc4c3c2NC(=O)N4c2ccc(Oc3ccccc3)cc2)CC1 [Example 145, N-((1S,4S)-4-Aminocyclohexyl)-4-oxo-5-(4-phenoxyphenyl)-4,5-dihydro-3H-1-thia-3,5,8-triazaacenaphthylene-2-carboxamide]",6.69
16,"N[C@H]1CC[C@H](NC(=O)c2sc3nccc4c3c2NC(=O)N4c2ccc(Oc3ccccc3)cc2)CC1 [Example 146, N-(trans-(1R,4R)-4-Aminocyclohexyl)-4-oxo-5-(4-phenoxyphenyl)-4,5-dihydro-3H-1-thia-3,5,8-triazaacenaphthylene-2-carboxamide]",6.66
17,"N[C@H]1CCC[C@@H]1NC(=O)c1sc2nccc3c2c1NC(=O)N3c1ccc(Oc2ccccc2)cc1 [Example 148, N-((1S,2S)-2-Aminocyclopentyl)-4-oxo-5-(4-phenoxyphenyl)-4,5-dihydro-3H-1-thia-3,5,8-triazaacenaphthylene-2-carboxamide]",6.47
18,"N[C@@H]1CCCC[C@H]1NC(=O)c1sc2nccc3c2c1NC(=O)N3c1ccc(Oc2ccccc2)cc1 [Example 149, N-((1R,2R)-2-Aminocyclohexyl)-4-oxo-5-(4-phenoxyphenyl)-4,5-dihydro-3H-1-thia-3,5,8-triazaacenaphthylene-2-carboxamide]",6.45
19,"CC(C)(C)OC(=O)N[C@@H]1CC[C@H](NC(=O)c2sc3nccc4c3c2NC(=O)N4c2ccc(Oc3ccccc3)cc2)C1 [Example 150, tert-Butyl ((1R,3S)-3-(4-oxo-5-(4-phenoxyphenyl)-4,5-dihydro-3H-1-thia-3,5,8-triazaacenaphthylene-2-carboxamido)cyclopentyl)carbamate]",6.40
20,"CC(C)(C)OC(=O)N[C@H]1CC[C@H](NC(=O)c2sc3nccc4c3c2NC(=O)N4c2ccc(Oc3ccccc3)cc2)CC1 [Example 151, tert-Butyl trans-((1R,4R)-4-(4-oxo-5-(4-phenoxyphenyl)-4,5-dihydro-3H-1-thia-3,5,8-triazaacenaphthylene-2-carboxamido)cyclohexyl)carbamate]",6.33
21,"O=C(NCC1(O)CCCCC1)c1sc2nccc3c2c1NC(=O)N3c1ccc(Oc2ccccc2)cc1 [Example 152, N-((1-Hydroxycyclohexyl)methyl)-4-oxo-5-(4-phenoxyphenyl)-4,5-dihydro-3H-1-thia-3,5,8-triazaacenaphthylene-2-carboxamide]",6.25
22,"Cc1cc(OC(C)C)ccc1N1C(=O)Nc2c(C(=O)N[C@H]3CC[C@@H](NC(=O)/C=C/CN(C)C)C3)sc3nccc1c23 [Example 153, N-((1S,3R)-3-((E)-4-(Dimethylamino)but-2-enamido)cyclopentyl)-5-(4-isopropoxy-2-methylphenyl)-4-oxo-4,5-dihydro-3H-1-thia-3,5,8-triazaacenaphthylene-2-carboxamide]",6.44
23,"O=C(N[C@H]1CCC[C@@H](O)C1)c1sc2nccc3c2c1NC(=O)N3c1ccc(Oc2ccccc2)cc1 [Example 157, N-((1S,3R)-3-Hydroxycyclohexyl)-4-oxo-5-(4-phenoxyphenyl)-4,5-dihydro-3H-1-thia-3,5,8-triazaacenaphthylene-2-carboxamide]",6.19
24,"Cc1cc(OC(C)C)ccc1N1C(=O)Nc2c(C(=O)N[C@H]3CC[C@@H](NC(=O)CN(C)C)C3)sc3nccc1c23 [Example 158, N-((1S,3R)-3-(2-(Dimethylamino)acetamido)cyclopentyl)-5-(4-isopropoxy-2-methylphenyl)-4-oxo-4,5-dihydro-3H-1-thia-3,5,8-triazaacenaphthylene-2-carboxamide]",6.11

# Same assay, conditions: read-out: BTK_I_binding pIC50 (converted)
row,SMILES,IC50
1,"C=CC(=O)N[C@@H]1CC[C@H](NC(=O)c2sc3nccc4c3c2NC(=O)N4c2ccc(Oc3ccccc3)cc2)C1 [Example 117, N-((1S,3R)-3-Acrylamidocyclopentyl)-4-oxo-5-(4-phenoxyphenyl)-4,5-dihydro-3H-1-thia-3,5,8-triazaacenaphthylene-2-carboxamide]",15.8 nM
2,"CCC(=O)N[C@@H]1CCC[C@@H]1NC(=O)c1sc2nccc3c2c1NC(=O)N3c1ccnc(-c2ccccc2)c1 [Example 159, 4-Oxo-5-(2-phenylpyridin-4-yl)-N-((1S,2R)-2-propionamidocyclopentyl)-4,5-dihydro-3H-1-thia-3,5,8-triazaacenaphthylene-2-carboxamide]",> 1000 nM
3,"Cc1cc(OC(C)C)ccc1N1C(=O)Nc2c(C(=O)N[C@@H]3CCCC[C@@H]3N)sc3nccc1c23 [Example 160, N-((1R,2S)-2-Aminocyclohexyl)-5-(4-isopropoxy-2-methylphenyl)-4-oxo-4,5-dihydro-3H-1-thia-3,5,8-triazaacenaphthylene-2-carboxamide]",> 1000 nM

# Source: patent US10934310B2, “Inhibitors of Bruton's tyrosine kinase and method of their use” (JANSSEN PHARMACEUTICA NV, priority 2015, dated 2021)
